The values that follow come from ChEMBL document CHEMBL1156828, “Pyridinylquinoxalines and pyridinylpyridopyrazines as lead compounds for novel p38 alpha mitogen-activated protein kinase inhibitors” (J Med Chem, 2010).

T1 sequence (Q16539 whole entry): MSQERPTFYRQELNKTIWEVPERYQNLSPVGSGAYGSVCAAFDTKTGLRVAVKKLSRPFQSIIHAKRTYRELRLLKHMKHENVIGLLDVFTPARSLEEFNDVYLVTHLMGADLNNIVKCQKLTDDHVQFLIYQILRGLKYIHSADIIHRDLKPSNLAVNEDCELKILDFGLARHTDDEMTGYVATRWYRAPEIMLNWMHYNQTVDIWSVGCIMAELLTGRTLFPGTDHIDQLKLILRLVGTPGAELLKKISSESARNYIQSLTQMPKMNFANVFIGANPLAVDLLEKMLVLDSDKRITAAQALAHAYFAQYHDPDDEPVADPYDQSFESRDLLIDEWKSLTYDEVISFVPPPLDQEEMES

The first assay has as its target T1, Mitogen-activated protein kinase 14 (Homo sapiens, UniProt Q16539). Kind of assay: Inhibition of p38alpha-mediated ATF2 phosphorylation in presence of ATP.
`CC(C)Nc1cc(-c2nc3ccccc3nc2-c2ccc(F)cc2)ccn1`: the IC50 – broadly, the concentration needed to halve the response being measured – is 81 nM. For the compound `Cc1cc2nc(-c3ccc(F)cc3)c(-c3ccnc(NC(C)C(C)C)c3)nc2cc1C` (stereo not given), the IC50 came out at 1380 nM. The same measure, in the same setting: the same measure for `CC(C)Nc1cc(-c2nc3ncccc3nc2-c2ccc(F)cc2)ccn1`: 333 nM; for `Fc1ccc(-c2nc3ccccc3nc2-c2ccncc2)cc1`: 3150 nM. On the same count and under the same terms, the same measure for `Fc1ccc(-c2nc3ncccc3nc2-c2ccncc2)cc1`: 3190 nM. The same measure, in the same setting: for `O[C@H]1CC[C@H](Nc2cc(-c3nc4cc(Cl)c(Cl)cc4nc3-c3ccc(F)cc3)ccn2)CC1` the value was 608 nM; for `CC(C)Nc1cc(-c2nc3cc(Cl)c(Cl)cc3nc2-c2ccc(F)cc2)ccn1`, 412 nM.

Turning to `CC(C)C(C)Nc1cc(-c2nc3ccccc3nc2-c2ccc(F)cc2)ccn1` (stereo not given), the IC50 came out at 790 nM.

For `CCC(C)Nc1cc(-c2nc3ccccc3nc2-c2ccc(F)cc2)ccn1` (stereo not given), the IC50 was 114 nM.

Regarding `CC(C)CNc1cc(-c2nc3ccccc3nc2-c2ccc(F)cc2)ccn1`, the IC50 stood at 642 nM. In the case of `Cc1cc2nc(-c3ccc(F)cc3)c(-c3ccnc(N[C@H]4CC[C@H](O)CC4)c3)nc2cc1C`, the 50% inhibitory concentration (IC50) turned out to be 259 nM. The same measure, in the same setting: for `CC(C)[C@H](C)Nc1cc(-c2nc3ccccc3nc2-c2ccc(F)cc2)ccn1` the value was 576 nM. Still for that read-out and setting: the same measure for `CCC(C)Nc1cc(-c2nc3cc(C)c(C)cc3nc2-c2ccc(F)cc2)ccn1` (stereo not given): 595 nM; for `CC(C)[C@@H](C)Nc1cc(-c2nc3ccccc3nc2-c2ccc(F)cc2)ccn1`: 1590 nM; for `CC(C)Nc1cc(-c2nc3cccnc3nc2-c2ccc(F)cc2)ccn1`: 38 nM. The same measure, in the same setting: the same measure for `Cc1cc2nc(-c3ccc(F)cc3)c(-c3ccnc(NC(C)C)c3)nc2cc1C`: 238 nM. Take `CC(C)C(C)Nc1cc(-c2nc3cc(Cl)c(Cl)cc3nc2-c2ccc(F)cc2)ccn1` (stereo not given): the IC50 was found to be 9460 nM. Regarding `Cc1cc2nc(-c3ccc(F)cc3)c(-c3ccnc(NCc4ccccc4)c3)nc2cc1C`, the IC50 is 1530 nM. The same measure, in the same setting: the same measure for `C[C@@H](Nc1cc(-c2nc3ccccc3nc2-c2ccc(F)cc2)ccn1)c1ccccc1`: 4790 nM. Still for that read-out and setting: for `COc1ccc2nc(-c3ccncc3)c(-c3ccc(F)cc3)nc2c1` the value was 6140 nM; for `C[C@H](Nc1cc(-c2nc3ccccc3nc2-c2ccc(F)cc2)ccn1)c1ccccc1`, 431 nM. Still for that read-out and setting: the same measure for `CC(Nc1cc(-c2nc3ccccc3nc2-c2ccc(F)cc2)ccn1)c1ccccc1` (stereo not given): 720 nM; for `Cc1cc2nc(-c3ccncc3)c(-c3ccc(F)cc3)nc2cc1C`: 3700 nM; for `O[C@H]1CC[C@H](Nc2cc(-c3nc4ccccc4nc3-c3ccc(F)cc3)ccn2)CC1`: 211 nM.

A further assay deals with T1, Mitogen-activated protein kinase 14. Kind of assay: Inhibition of p38alpha-mediated ATF2 phosphorylation at 10 uM in presence of ATP.
On to `COc1ccc2nc(-c3ccc(F)cc3)c(-c3ccncc3)nc2c1`, for which the inhibition (commonly the drop in the measured response relative to a control, in per cent) stood at 33%. In the case of `Fc1ccc(-c2nc3ccccc3nc2-c2ccnc(NCc3ccccc3)c2)cc1`, the inhibition is 9%.

Turning to `Fc1ccc(-c2nc3cc(Cl)c(Cl)cc3nc2-c2ccnc(NCc3ccccc3)c2)cc1`, the inhibition worked out at 37%. Still for that read-out and setting: the same measure for `Fc1ccc(-c2nc3cc(Cl)c(Cl)cc3nc2-c2ccncc2)cc1`: 39%; for `Fc1ccc(-c2nc3cccnc3nc2-c2ccncc2)cc1`: 46%.

The next assay deals with Mitogen-activated protein kinase 10 (Homo sapiens, UniProt P53779). Kind of assay: Inhibition of JNK3 by nonradioactive JNK3 assay.
Sequence of Mitogen-activated protein kinase 10 (P53779 whole entry): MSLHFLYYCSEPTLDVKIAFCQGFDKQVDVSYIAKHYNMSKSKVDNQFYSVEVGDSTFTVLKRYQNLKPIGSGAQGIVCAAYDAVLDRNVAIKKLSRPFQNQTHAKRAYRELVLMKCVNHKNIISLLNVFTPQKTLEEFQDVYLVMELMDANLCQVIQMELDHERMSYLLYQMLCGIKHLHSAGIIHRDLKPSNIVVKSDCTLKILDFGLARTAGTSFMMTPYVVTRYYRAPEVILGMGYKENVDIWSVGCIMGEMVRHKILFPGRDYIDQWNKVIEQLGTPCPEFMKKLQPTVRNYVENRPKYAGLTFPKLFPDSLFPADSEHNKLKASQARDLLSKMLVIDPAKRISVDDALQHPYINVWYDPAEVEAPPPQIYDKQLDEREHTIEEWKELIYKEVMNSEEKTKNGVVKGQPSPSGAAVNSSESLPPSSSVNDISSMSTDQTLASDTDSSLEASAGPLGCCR
`CC(C)Nc1cc(-c2nc3ccccc3nc2-c2ccc(F)cc2)ccn1`: the IC50 was found to be 3950 nM.
